In patent publication US12411143B2, “CD146 and uses thereof as a biomarker and as a therapeutic target in the diagnosis and treatment of fibrosis” (ASSISTANCE PUBLIQUE HÔPITAUX DE MARSEILLE, priority 2018, dated 2025):

Legend:
ECFC [1] = experiment: ECFC proliferation assay; assay type: cell-based, human; conditions: recombinant proteins 50 ng/ml, in the presence of GM6001 10 μM
Method: A: Effect of siRNA targeting I10-sCD146 and I5-13-sCD146 on proliferation of ECFC. Experiments were performed in the presence of GM6001 10 μM. Results are mean values of 4 different experiments and representative pictures of the cells in one experiment are given.
B: Effect of over-expression of I10-sCD146 (p-I10-sCD146), I5-13-sCD146 (p-I5-13-sCD146) and shed sCD146 (p-shed sCD146) realized by plasmid transfection on proliferation of ECFC. Experiments were performed in the presence of GM6001 10 μM.
C: Effect of recombinant proteins I10-sCD146, I5-13-sCD146 and shed sCD146 50 ng/ml on the proliferation of ECFC. Experiments were performed in the presence of GM6001 10 μM. Results are mean values of 4 different experiments.
Experiments were performed as previously described (Stalin et al., 2013).

ECFC [2] = experiment: mRNA expression of sCD146 isoforms in ECFC (qPCR); assay type: cell-based, human; conditions: for expression of short CD146, long CD146, I5-13-sCD146 and I10-sCD146 at the mRNA level: endothelial cells treated with recombinant proteins
Method: C: The mRNA expression of I10-sCD146 and I5-13-sCD146 isoforms was analyzed by qPCR in ECFC after treatment of the cells for 24 h with the recombinant shed soluble CD146 50 ng/ml, VEGF 20 ng/ml, TNF 20 ng/ml, TGF beta 5 ng/ml, and netrin 50 ng/ml. Cells were also treated for 15 min with WNT5a 200 ng/ml and 1 h with WNT3a 50 ng/ml. Results are the mean values +/−SEM of 3 experiments. *: P<0.05, experimental vs Control.
Total cellular RNA was isolated from cells, reverse transcribed into cDNA and the resulting cDNA was subjected to qPCR.

[3] = system: Human cardiac fibroblasts (HCFs); experiment: Cell proliferation of human cardiac fibroblasts (BrdU assay); assay type: cell-based
Method: Human cardiac fibroblasts (HCFs) (PromoCell) are grown in Fibroblast Growth Medium 3 Supplement Pack (PromoCell) in an environment at 37° C. with controlled atmosphere. The HCFs are grown between passages 3 and 7.
To perform the stimulations, the fibroblasts are seeded at a density of 30 000 cells/cm^2 in complete culture medium. After 24 hours of adhesion, the cell culture medium is replaced with medium not containing growth factor (minimal medium) for 4 hours.
This medium is then replaced with minimal medium supplemented with 25, 50, 75 or 100 ng/mL of CD146s or with 2.5, 5 or 10 ng/mL of TGF-β for the proliferation study.
Cell proliferation is determined using a proliferation kit (BrdU Assay, Roche). An anti-BrdU antibody diluted 1/100 in its diluent solution is incubated for 90 minutes at 37° C. After removal and rinsing of excess antibody, a second antibody directed specifically against anti-BrdU and coupled to peroxidase is incubated for 30 minutes at room temperature and then removed. Detection is performed by the addition of 100 μL of enzyme substrate. […] Staining intensity, proportional to BrdU incorporation, is read on a spectrophotometer at 450 nm. The results are calculated by subtracting the background noise observed in a culture well containing no cells but having received the same amount of BrdU. Percentage of proliferation is then calculated for each condition. […]

[4] = system: renal and cardiac endothelial cells; experiment: In vitro endothelial-mesenchymal transition; assay type: cell-based
human renal fibroblasts = experiment: α-SMA and vimentin mRNA expression in primary culture of human renal fibroblasts; assay type: cell-based; conditions: sCD146 50 ng/ml, versus control without treatment
Method: The effect of sCD146 (50 ng/ml) was examined on primary culture from human fibroblasts. The effect of 500 ng/ml anti-sCD146 mAb administrated either alone (Ac) or with sCD146.
Results are mean values +/−SE of 3 experiments and expressed as fold change versus control condition without treatment.
The effect of anti-sCD146 treatment was observed on the mRNA expression of α-SMA and vimentin in human renal fibroblast in (in vitro) culture.

miR21 = experiment: In vitro induction of miR21; assay type: cell-based
ECFC [5] = experiment: Permeability of ECFC monolayer to dextran-FITC; assay type: cell-based, human; conditions: treatment with recombinant proteins
Method: D: ECFC were transfected with siRNA targeting ADAM10 or Tace and with a control siRNA (C). The permeability of the ECFC monolayer grown on semi-permeable filters was determined using dextran-FITC. Results are the mean values+/−SEM of 3 experiments.
E: ECFC were transfected with plasmid vectors encoding ADAM10 (p-ADAM10) or Tace (p-Tace) and with a control plasmid vector (C). The permeability of the ECFC monolayer grown on semi-permeable filters was determined using dextran-FITC. Results are the mean values+/−SEM of 3 experiments. *: P<0.05, **: P<0.01, ***: P<0.001, experimental vs Control.
ECFC were seeded at 60,000 cells per well on membrane inserts (porosity 1 μm) of a 24-multiwell double chamber system (Multiwell Insert System, BD Biosciences, Le Pont de Claix, France) after siRNA transfection or not. Confluent endothelial monolayers were then incubated for 24 h in EGM-2 medium in the presence or absence of the different forms of sCD146. The FITC-dextran (sigma) was added at the apical surface of the cells and was allowed to migrate for 1.5 h at 37° C. Basolateral FITC-dextran was then measured using a Cytofluor Series 4000 Fluorescence (PerSeptiveBiosystems, Framingham, MA).

Molecule	endothelial cells proliferation (ECFC [1])	I5-13-sCD146 mRNA level (ECFC [2]; ECFC, 24 h treatment (WNT5a 15 min, WNT3a 1 h))	cell proliferation of cardiac fibroblasts ([3]; 25, 50, 75 or 100 ng/mL of CD146s)	amount giving the maximum pro-proliferative effect ([3]; HCFs) [ng/mL]	endothelial-mesenchymal transition [4]	α-SMA and vimentin mRNA expression (human renal fibroblasts)	miR21 induction (miR21)	transendothelial permeability (ECFC [5])	expression of short CD146, long CD146, I5-13-sCD146 and I10-sCD146 at the mRNA level (ECFC [2])
sCD146: recombinant human soluble form of CD146 corresponding to the shed sCD146, obtained from Biocytex	increased endothelial cells proliferation	not modified	significant, dose-dependent increase in cell proliferation	50	induces in vitro an endothelial-mesenchymal transition	increase in α-SMA and vimentin mRNA expression	significantly induces in vitro miR21		
rh-I10-sCD146: recombinant spliced variant of soluble CD146 containing intron 10, SEQ ID NO: 9 (protein, listed as Homo sapiens) MGLPRLVCAFLLAACCCCPRVAGVPGEAEQPAPELVEVEVGSTALLKCGLSQSQGNLSHVDWFSVHKEKRTLIFRVRQGQGQSEPGEYEQRLSLQDRGATLALTQVTPQDERIFLCQGKRPRSQEYRIQLRVYKAPEEPNIQVNPLGIPVNSKEPEEVATCVGRNGYPIPQVIWYKNGRPLKEEKNRVHIQSSQTVESSGLYTLQSILKAQLVKEDKDAQFYCELNYRLPSGNHMKESREVTVPVFYPTEKVWLEVEPVGMLKEGDRVEIRCLADGNPPPHFSISKQNPSTREAEEETTNDNGVLVLEPARKEHSGRYECQGLDLDTMISLLSEPQELLVNYVSDVRVSPAAPERQEGSSLTLTCEAESSQDLEFQWLREETGQVLERGPVLQLHDLKREAGGGYRCVASVPSIPGLNRTQLVNVAIFGEALPLGRDQVTPSGVVFKLFDKKPPAALGSSGAEGEAG	increased endothelial cells proliferation							nor treatment with recombinant proteins corresponding to these variants modified transendothelial permeability	did not modify the expression
rh-I5-13-sCD146: recombinant spliced variant of soluble CD146 containing introns 5 and 13, SEQ ID NO: 8 (protein, listed as Homo sapiens) MVYIVRQFLLYNVSGSVYLDQLIVLLTAKFSILRIAGSRVHHSPFSGHLDGCSFLSLQHSLHTSLDMSRHENVFLGLTLSSKSAGLKGFQLAFVPGLLQGTGGYLDGPLPTPVDNPRVGLEVGLRLSLPPLPPCPGVHIQSSQTVESSGLYTLQSILKAQLVKEDKDAQFYCELNYRLPSGNHMKESREVTVPVFYPTEKVWLEVEPVGMLKEGDRVEIRCLADGNPPPHFSISKQNPSTREAEEETTNDNGVLVLEPARKEHSGRYECQGLDLDTMISLLSEPQELLVNYVSDVRVSPAAPERQEGSSLTLTCEAESSQDLEFQWLREETGQVLERGPVLQLHDLKREAGGGYRCVASVPSIPGLNRTQLVNVAIFGPPWMAFKERKVWVKENMVLNLSCEASGHPRPTISWNVNGTASEQDQDPQRVLSTLNVLVTPELLETGVECTASNDLGKNTSILFLELVNLTTLTPDSNTTTGLSTSTASPHTRANSTSTGKPGLAREQGCARASFLPCPSPESPVQKGE	increased endothelial cells proliferation							nor treatment with recombinant proteins corresponding to these variants modified transendothelial permeability	did not modify the expression
